# Reference: ChEMBL document CHEMBL1140389, “Synthesis and biological activity of macrocyclic inhibitors of hepatitis C virus (HCV) NS3 protease” (Bioorg Med Chem Lett, 2005)
# Starred links: 1 amine or outer side, 2 acyl side, 3 side chain; linkers in the order of their positions; H or OH if unused. Positions of bridges follow the written chain, without caps; N, C: chain ends. Non-standard residues stand in square brackets, D forms with d. Residues, ends and D or L forms follow the SMILES beside them. *: point of attachment. Phe(3-(CH2)7CO) = O=C([C@H](Cc1cccc(CCCCCCCC(=O)[*:3])c1)N[*:1])[*:2]; X1 = CCCC(N[*:1])C(=O)C(=O)[*:2]; Chg = N[C@H](C(=O)O)C1CCCCC1; Phg = N[C@H](C(=O)O)c1ccccc1; OtBu = CC(C)(C)O*
# Target: NS3 (Hepatitis C virus, UniProt A3EZJ3)
# Assay: Inhibitory constant against NS3 serine protease of hepatitis c virus
# Parameters: species or system Hepacivirus hominis
# NS3, sequence (A3EZJ3 whole entry): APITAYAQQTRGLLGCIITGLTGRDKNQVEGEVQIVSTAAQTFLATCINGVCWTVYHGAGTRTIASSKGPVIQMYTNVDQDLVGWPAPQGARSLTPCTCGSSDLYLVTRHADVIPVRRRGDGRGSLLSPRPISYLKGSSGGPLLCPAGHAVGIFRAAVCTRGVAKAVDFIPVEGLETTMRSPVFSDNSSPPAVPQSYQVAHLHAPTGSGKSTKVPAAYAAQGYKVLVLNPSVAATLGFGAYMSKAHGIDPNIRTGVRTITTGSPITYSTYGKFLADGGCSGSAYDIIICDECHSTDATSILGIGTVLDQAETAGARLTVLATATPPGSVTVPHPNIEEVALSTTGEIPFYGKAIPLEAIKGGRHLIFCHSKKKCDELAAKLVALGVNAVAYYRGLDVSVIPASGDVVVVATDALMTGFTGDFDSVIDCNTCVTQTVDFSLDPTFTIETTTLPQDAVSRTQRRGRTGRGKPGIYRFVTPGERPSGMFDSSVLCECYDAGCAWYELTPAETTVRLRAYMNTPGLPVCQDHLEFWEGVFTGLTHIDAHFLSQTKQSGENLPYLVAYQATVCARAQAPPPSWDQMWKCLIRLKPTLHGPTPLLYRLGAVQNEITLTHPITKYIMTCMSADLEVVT
row,Ki,SMILES
1,120 nM,CCCC(NC(=O)[C@@H]1Cc2cccc(c2)/C=C/CCCCCC(=O)N[C@@H](C2CCCCC2)C(=O)N1)C(=O)C(=O)NCC(=O)N[C@H](C(=O)N(C)C)c1ccccc1 (stereo not given in full)
2,84 nM,CCCC(NC(=O)[C@@H]1Cc2cccc(c2)/C=C/CCCCCC(=O)N[C@@H](C2CCCCC2)C(=O)N1)C(=O)C(=O)NCC(=O)N[C@H](C(=O)O)c1ccccc1 (stereo not given in full)
3,2300 nM,CCCC(NC(=O)[C@@H]1Cc2cccc(c2)CCCCCCCC(=O)N[C@@H](C2CCCCC2)C(=O)N1)C(=O)C(=O)NCC(=O)N[C@H](C(=O)OC(C)(C)C)c1ccccc1 (stereo not given in full) ([Chg][Phe(3-(CH2)7CO)][X1]G[Phg]-OtBu; lactam N-2)
4,110 nM,CCCC(NC(=O)[C@@H]1Cc2cccc(c2)CCCCCCCC(=O)N[C@@H](C2CCCCC2)C(=O)N1)C(=O)C(=O)NCC(=O)N[C@H](C(=O)N(C)C)c1ccccc1 (stereo not given in full) ([Chg][Phe(3-(CH2)7CO)][X1]G[Phg]-NMe2; lactam N-2)
5,1200 nM,CCCC(NC(=O)[C@@H]1Cc2cccc(c2)/C=C/CCCCCC(=O)N[C@@H](C2CCCCC2)C(=O)N1)C(=O)C(=O)NCC(=O)N[C@H](C(=O)OC(C)(C)C)c1ccccc1 (stereo not given in full)
